Laboratory results: patent US20140323519A1, “HETEROCYCLIC COMPOUNDS AS B-RAF INHIBITORS FOR TREATMENT OF CANCER” (MERCK SHARP & DOHME CORP., priority 2011, published 2014)

Biological target: T1, B-Raf kinase (Homo sapiens, UniProt P15056)
T1 construct: purchased Upstate 14-530
Experiment: B-Raf kinase assay (IMAP fluorescence polarisation, B-raf/MEK1/ERK2 cascade)
Assay type: biochemical
Conditions: B-raf 0.2 U/mL, 50 μM ATP, 60 min pre-incubation, FP readout
Procedure: Other assays are known in the literature and could be readily performed by those of skill in the art.
9) B-raf, active enzyme (for example #14-530, Upstate)
13) Fluorescein labeled substrate peptide (“ERK-tide”; IPTTPITTTYFFFK-5FAM-COOH), (for example #R7292/#R7293, Molecular Devices)
Prepare fresh Kinase Reaction buffer (KR-buffer) just before use: 50 mL Reaction buffer+50 μl 1 M DTT (1 mM final concentration). Serial dilutions of test compounds are made in 100% DMSO. For example a 10 points half log serial dilution from 1 mM to 31.6 nM leading to a final compound concentration range in the assay from 10 μM to 0.316 nM can be used.
1) Add 2.5 μL/well test compound in KR-buffer (this solution contains 8% DMSO) or (in minimum, maximum and background wells) 2.5 μL/well KR-buffer containing 8% DMSO. (Final DMSO concentration in the assay is 1%).
2) Add 5 μL/well 0.8 U/mL B-raf enzyme diluted in KR-buffer (final B-raf enzyme concentration in the assay is 0.2 U/mL) to all wells.
3) Pre-incubate 60 minutes at room temperature in the dark.
4) Add 5 μL/well 256 ng/mL MEK1 enzyme diluted in KR-buffer (final MEK1 enzyme concentration in the assay is 64 ng/mL) to all wells.
5) Add 5 μL/well 2.4 μg/mL Erk2 enzyme with 200 nM Fl-peptide substrate diluted in KR-buffer (final concentration in the assay of Erk2 enzyme is 600 ng/mL and of Fl-peptide substrate is 50 nM) to all wells except the background wells. Add here 5 μL/well 2.4 μg/mL Erk2 enzyme without 200 nM Fl-peptide substrate.
6) Add 2.5 μL/well 400 μM ATP to minimum and compound wells (50× dilution of the mM stock in KR-buffer, final ATP concentration in the assay is 50 μM) or (in maximum wells) 2.5 μl/well KR-buffer.
7) Incubate 60 minutes at 30° C. in the dark.
8) Add 20 μL/well IMAP Progressive Binding Solution (IMAP Progressive Binding Solution: 75% 1× buffer A and 25% 1× buffer B with 1:900 dilution of Progressive Binding Reagent, all kit contents) to all wells.
9) Incubate 60 minutes at room temperature in the dark.
10) Read the FP signal on Envision multi-label reader.
On every 384-well assay plate, 16-18 wells are used as minimum wells (wells without inhibitor, 0% effect), 16-18 wells are used as maximum wells (wells without ATP, 100% effect). 16 wells are used for measuring the background signal (everything but not substrate). For all assay plates duplicates are prepared.
Run as two independent experiments (N=2) on duplicate plates (n=2).
IC50 Determinations: mP values of compound test wells are converted to percent effect based on 0% effect and 100% effect controls. Dose-response curves were generated from percent effect data plotted against test compound concentration, each in duplicate, from 10 point serial dilutions of inhibitory compounds. To generate IC50 values, the dose-response curves were fitted to a standard sigmoidal curve and IC50 values were derived by nonlinear regression analysis.

T1 sequence (P15056 416-766 limits assumed): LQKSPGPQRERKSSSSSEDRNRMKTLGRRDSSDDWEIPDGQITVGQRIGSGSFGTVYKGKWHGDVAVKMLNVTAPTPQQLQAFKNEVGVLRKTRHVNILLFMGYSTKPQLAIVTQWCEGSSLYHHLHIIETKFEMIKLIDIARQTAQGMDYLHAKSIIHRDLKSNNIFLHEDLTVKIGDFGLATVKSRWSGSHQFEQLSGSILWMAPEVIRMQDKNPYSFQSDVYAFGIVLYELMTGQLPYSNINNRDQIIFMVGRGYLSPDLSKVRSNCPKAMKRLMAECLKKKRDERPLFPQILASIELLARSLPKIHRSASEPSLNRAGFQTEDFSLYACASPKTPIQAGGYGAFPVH

Row | SMILES | IC50 [nM]
1 | Cc1ccc(NC(=O)c2cccc(C(C)(C)C#N)c2)cc1N1CC(c2ccccc2)OC1=O (stereo not drawn) [Compound 1-7, 3-(Cyano-dimethyl-methyl)-N-[4-methyl-3-(2-oxo-5-phenyl-oxazolidin-3-yl)-phenyl]-benzamide] | 50 to 100
2 | Cc1ccc(NC(=O)c2cccc(C(C)(C)C#N)c2)cc1N1CC(c2ccccc2)CC1=O (stereo not drawn) [Compound 1-5, 3-(Cyano-dimethyl-methyl)-N-[4-methyl-3-(2-oxo-4-phenyl-pyrrolidin-1-yl)-phenyl]-benzamide] | 50 to 100
3 | Cc1ccc(NC(=O)c2cccc(C(C)(C)C#N)c2)cc1-n1c(=O)n(C)c2ccccc21 [Compound 1-6, 3-(2-cyanopropan-2-yl)-N-(4-methyl-3-(3-methyl-2-oxo-2,3-dihydro-1H-benzo[d]imidazol-1-yl)phenyl)benzamide] | 50 to 100
4 | COc1ccc2c(c1)n(-c1cc(NC(=O)c3cccc(C(C)(C)C#N)c3)ccc1C)c(=O)n2C [Compound 1-9, 3-(Cyano-dimethyl-methyl)-N-[3-(6-methoxy-3-methyl-2-oxo-2,3-dihydro-benzoimidazol-1-yl)-4-methyl-phenyl]-benzamide] | > 100
5 | COc1ccc2c(c1)C(=O)N(c1cc(NC(=O)c3cccc(C(C)(C)C#N)c3)ccc1C)C2 [Compound 1-1, 3-(2-cyanopropan-2-yl)-N-(3-(6-methoxy-1-oxoisoindolin-2-yl)-4-methylphenyl)benzamide] | 50 to 100
6 | Cc1ccc(NC(=O)c2cccc(C(C)(C)C#N)c2)cc1N1CCN(c2ccccc2)C1=O [Compound 1-8, 3-(Cyano-dimethyl-methyl)-N-[4-methyl-3-(2-oxo-3-phenyl-imidazolidin-1-yl)-phenyl]-benzamide] | > 100
